Consider 17 molecules from ChEMBL document CHEMBL1136399, “Anti-AIDS agents 54. A potent anti-HIV chalcone and flavonoids from genus Desmos” (Bioorg Med Chem Lett, 2003).

A word on the EC50: it is the concentration giving half of the maximal effect. What is called IC50 is the concentration that gives 50% inhibition. Read a low IC50 as higher potency.

Molecules are shown by their SMILES. Values after ≈ are worked out from the molar mass of the structure shown.

The test system of series [1] is H9. Description: Effective concentration against HIV-1 replication in H9 lymphocytic cells; No suppression. In kind it is functional, cell-based, Homo sapiens.
Series [2] has as its system H9. Description: Concentration that inhibits uninfected H9 cell growth by 50%. The settings on record: Homo sapiens. In kind it is functional, cell-based.
For series [3], the system named is H9. Kind of series: Effective concentration against HIV-1 replication in H9 lymphocytic cells. In kind it is functional, cell-based. The settings on record: Homo sapiens.
Series [4] is described as follows: Therapeutic index determined by ratio of IC50 to EC50. The settings on record: read-out: Therapeutic index.
For series [5], the system named is H9. Kind of series: Concentration that inhibits uninfected H9 cell growth by 50%.; Not dissolved. In kind it is functional, cell-based, Homo sapiens.
In series [6] the test system is H9. Kind of series: Concentration that inhibits uninfected H9 cell growth by 50%.; Did not dissolve. In kind it is functional, cell-based, Homo sapiens.

For `CC1=C(O)C(C)(C)C2=C(C(=O)C[C@@H](c3ccccc3)O2)C1=O`, in series [1], the EC50 result is recorded as “Not Active”. Besides, the IC50 in series [2] was 1.89 µg/mL (≈ 6.34 µM).

Molecule `Cc1c(O)c(C=O)c(O)c2c1O[C@H](c1ccccc1)CC2=O` gave an EC50 in series [3] of 2.3 µg/mL (≈ 7.71 µM). Besides, the IC50 in series [2] is 104 µg/mL (≈ 349 µM). Also, in series [4], the selectivity ratio was determined as 45.2.

In the case of `Cc1c(O)c(C=O)c(O)c(/C(O)=C/C(=O)c2ccccc2)c1O`, the EC50 entry in series [1] was “Not Active”. The IC50 in series [2] was found to be 18.8 µg/mL (≈ 59.8 µM).

As for `COc1cc2oc(-c3ccccc3)cc(=O)c2c(O)c1OC` [MOSLOFLAVONE], in series [1], the 50% effective concentration (EC50) entry is listed as “Not Active”. This molecule also returned a half-maximal inhibitory concentration (IC50) in series [2] of 20.2 µg/mL (≈ 67.7 µM).

Regarding `Cc1c(O)c(C=O)c2c(c1O)C(=O)C[C@@H](c1ccccc1)O2`, in series [1], the EC50 entry was “Not Active”. The molecule further displayed an IC50 in series [2] of 2.15 µg/mL (≈ 7.21 µM).

In the case of `Cc1c(O)c(C=O)c2oc(-c3ccccc3)cc(=O)c2c1O`, in series [5], the 50% inhibitory concentration (IC50) result was “Insoluble”.

For the molecule `COc1c(C)c(O)c(C=O)c2c1C(O)C[C@@H](c1ccccc1)O2` (stereo not given in full), in series [1], the concentration for a half-maximal effect (EC50) result is on record as “Not Active”. This molecule also yielded an IC50 in series [2] of 24.2 µg/mL (≈ 77 µM).

In series [3], `Cc1cn([C@H]2C[C@H](N=[N+]=[N-])[C@@H](CO)O2)c(=O)[nH]c1=O` [ZIDOVUDINE] showed an EC50 of 0.0221 µg/mL (≈ 0.0827 µM).

Consider `COC1=C(C)C(O)=C(C(=O)/C=C/c2ccccc2)C(=O)C1(C)C` [DESMOSDUMOTIN C], for which the EC50 result in series [1] is “Not Active”. In series [2], the half-inhibitory concentration (IC50) was determined as 2.29 µg/mL (≈ 7.33 µM).

The molecule `COc1c(C)c(O)c(C=O)c2c1C(=O)C[C@@H](c1ccccc1)O2` gave an EC50 in series [3] of 11 µg/mL (≈ 35.2 µM). This molecule displayed an IC50 in series [2] of 108 µg/mL (≈ 346 µM). Moreover, the selectivity ratio in series [4] amounted to 9.85.

`Cc1c(O)c(C=O)c(O)c2c(=O)cc(-c3ccccc3)oc12`: the IC50 result in series [6] is “Insoluble”.

Molecule `Cc1c(O)c(C)c2c(c1O)C(=O)C[C@@H](c1ccccc1)O2` [DEMETHOXYMATTEUCINOL] came in with an EC50 in series [3] of 4.97 µg/mL (≈ 17.5 µM). The molecule also gave a concentration for half-maximal inhibition (IC50) in series [2] of 20.8 µg/mL (≈ 73.2 µM). Further, the selectivity ratio in series [4] was found to be 4.18.

On to `COc1c(C)c(O)c2c(c1C)O[C@H](c1ccccc1)CC2=O`, for which the concentration giving a half-maximal response (EC50) entry in series [1] is reported as “Not Active”. The IC50 in series [2] was found to be 1.77 µg/mL (≈ 5.93 µM).

For the molecule `COc1c(C)c(O)c2c(=O)cc(-c3ccccc3)oc2c1C`, the EC50 entry in series [1] is recorded as “Not Active”. In series [2], this molecule came in with a half-inhibitory concentration (IC50) of 19.8 µg/mL (≈ 66.8 µM).

For `COc1c(C)c(O)c2c(c1C=O)O[C@@H](C)[C@H](C(=O)c1ccccc1)C2=O`, in series [1], the EC50 result is on record as “Not Active”. Further, the IC50 in series [2] is 18.9 µg/mL (≈ 53.3 µM).

As for `COc1cc2oc(-c3ccccc3)cc(=O)c2c(O)c1O`, the EC50 entry in series [1] is reported as “Not Active”. The molecule also showed an IC50 in series [2] of 11.5 µg/mL (≈ 40.5 µM).

On to `COc1c(C)c(O)c(/C(O)=C/C(=O)c2ccccc2)c(O)c1C=O`, for which, in series [3], the EC50 was determined as 0.022 µg/mL (≈ 0.067 µM). In series [2], this molecule gave a concentration for half-maximal inhibition (IC50) of 10.7 µg/mL (≈ 32.6 µM). For the same molecule, in series [4], the selectivity ratio was determined as 489.
